Assay results published in patent publication US10544137B2, “PI3K inhibitor, and pharmaceutically acceptable salt, polycrystalline form, and application thereof” (SHANGHAI HAIYAN PHARMACEUTICAL TECHNOLOGY CO., LTD., priority 2016, dated 2020).
Converted amounts (≈) assume the structure as drawn.

Columns and labels:
Type in all cases: physicochemical
[1] = Hygroscopicity experiment (DVS); conditions: for hygroscopicity (in words): DVS, 25° C.; for moisture absorbed: humidity increased to 80% RH at 25° C.
Excerpt: The Dynamic Vapor Sorption (DVS) curve was acquired on the DVS Intrinsic of Surface Measurement Systems.
The DVS test results of the crystal form A and the crystal form B-1 were shown in FIG. 26 and FIG. 27, respectively.
The DVS test results of the crystal form C, crystal form D-2, crystal form E, and crystal form F were shown in FIG. 28, FIG. 29, FIG. 30, and FIG. 31.

[2] = Solid phase stability experiment (sealed at 60° C., HPLC purity); conditions: for solid phase stability (in words): 60° C., at 7 days and 21 days
Protocol: 5 mg of samples were weighed and sealed at 60° C., respectively. Another set of samples were sealed and stored at −20° C. as a control at the same time. All samples were characterized by HPLC at 7 days and 21 days to detect changes in purity.

[3] = Solubility experiment in 0.1M HCl, buffers and water; conditions: for Solubility (mg/mL) 0.1M HCl / Solubility (mg/mL) pH 4.5 / Solubility (mg/mL) pH 6.8 / Solubility (mg/mL) H2O: ambient temperature; for Solubility (mg/mL) pH 4.5: pH 4.5 buffer; for Solubility (mg/mL) pH 6.8: pH 6.8 buffer; for solubility in water compared with the free base (in words) / Solubility (mg/mL) H2O: water
Protocol: The solubilities of the following four kinds of salt and free base sample in 0.1M HCl, pH 4.5 buffer, pH 6.8 buffer, and water were tested at ambient temperature. In the test, the calibration curves of free base and four kinds of salt were plotted. 3 mg of solid samples of free base and four kinds of salt were weighed, respectively, and then 1 ml of the solvent was added, centrifuged after 30 min ultrasound. The supernatant was taken, and injected through the membrane, and the solubility was tested.

[4] = Solubility of crystal form I in common solvents; conditions: ambient temperature; for solubility: thermodynamic from solid
Protocol: The solubility of the crystal form I in 11 common solvents at ambient temperature was tested. In the experiment, the crystal form I was formulated into standard solutions of different concentrations using 50% acetonitrile as solvent according to the following table, and injected to the HPLC instrument. The peak area was recorded and the standard curve was plotted, and the curve equation: y=11.30762x, R^2=0.99998, which has a good linear correlation in a range of 4.9 μg/ml˜499 μg/ml was obtained. 10-80 mg of crystal form I was weighed into 0.5-10 ml of different solutions in the following table to prepare a saturated solution, sonicated for 3-5 min, dispersed evenly and then taken out, centrifuged at 12000 rpm for 5 min. The supernatant was drawn and diluted at a certain multiple, injected to the HPLC, the peak area was recorded, the sample concentration was calculated, and the pH of undiluted samples was determined.

## CS(=O)(=O)C1(c2cc(-c3cnc(N)cc3Cl)nc(N3CCOCC3)n2)CC1 [crystal form A]
[1]
  hygroscopicity (in words): slightly hygroscopic
[2]
  solid phase stability (in words): good stability
[2]; 60° C.-0 day
  Purity (%): 99.73%
  Total impurities (%): 0.27%
[2]; 60° C.-7 days, sealed
  Purity (%): 99.78%
  Total impurities (%): 0.22%
[2]; 60° C.-21 days, sealed
  Purity (%): 99.75%
  Total impurities (%): 0.25%
[3]
  Solubility (mg/mL) 0.1M HCl: >2.744 mg/mL
  Solubility (mg/mL) pH 4.5: 0.020 mg/mL
  Solubility (mg/mL) pH 6.8: 0.012 mg/mL
  solubility in water compared with the free base (in words): obviously improved
  Solubility (mg/mL) H2O: 1.063 mg/mL (≈ 2.59 mM)

## CS(=O)(=O)C1(c2cc(-c3cnc(N)cc3Cl)nc(N3CCOCC3)n2)CC1 [crystal form B-1]
[1]
  hygroscopicity (in words): slightly hygroscopic
[2]
  solid phase stability (in words): good stability
[2]; 60° C.-0 day
  Purity (%): 99.74%
  Total impurities (%): 0.26%
[2]; 60° C.-7 days, sealed
  Purity (%): 99.50%
  Total impurities (%): 0.50%
[2]; 60° C.-21 days, sealed
  Purity (%): 99.74%
  Total impurities (%): 0.26%
[3]
  Solubility (mg/mL) 0.1M HCl: >2.488 mg/mL
  Solubility (mg/mL) pH 4.5: 0.026 mg/mL
  Solubility (mg/mL) pH 6.8: 0.012 mg/mL
  solubility in water compared with the free base (in words): obviously improved
  Solubility (mg/mL) H2O: 0.946 mg/mL (≈ 2.31 mM)

## CS(=O)(=O)C1(c2cc(-c3cnc(N)cc3Cl)nc(N3CCOCC3)n2)CC1 [crystal form C]
[1]
  hygroscopicity (in words): almost no hygroscopicity
  moisture absorbed: 0.17%
[2]
  solid phase stability (in words): good stability
[2]; 60° C.-0 day
  Purity (%): 99.73%
  Total impurities (%): 0.27%
[2]; 60° C.-7 days, sealed
  Purity (%): 99.74%
  Total impurities (%): 0.26%
[2]; 60° C.-21 days, sealed
  Purity (%): 99.75%
  Total impurities (%): 0.25%
[3]
  Solubility (mg/mL) 0.1M HCl: 1.875 mg/mL (≈ 4.57 mM)
  Solubility (mg/mL) pH 4.5: 0.027 mg/mL
  Solubility (mg/mL) pH 6.8: 0.010 mg/mL
  solubility in water compared with the free base (in words): obviously improved
  Solubility (mg/mL) H2O: 0.174 mg/mL (≈ 0.424 mM)

## CS(=O)(=O)C1(c2cc(-c3cnc(N)cc3Cl)nc(N3CCOCC3)n2)CC1 [crystal form D-2]
[1]
  hygroscopicity (in words): almost no hygroscopicity
  moisture absorbed: 0.14%
[2]
  solid phase stability (in words): good stability
[2]; 60° C.-0 day
  Purity (%): 98.37%
  Total impurities (%): 1.63%
[2]; 60° C.-7 days, sealed
  Purity (%): 98.22%
  Total impurities (%): 1.78%
[2]; 60° C.-21 days, sealed
  Purity (%): 98.25%
  Total impurities (%): 1.75%
[3]
  Solubility (mg/mL) 0.1M HCl: 1.195 mg/mL (≈ 2.92 mM)
  Solubility (mg/mL) pH 4.5: 0.031 mg/mL
  Solubility (mg/mL) pH 6.8: 0.013 mg/mL
  solubility in water compared with the free base (in words): slightly improved
  Solubility (mg/mL) H2O: 0.023 mg/mL (≈ 0.0561 mM)

## CS(=O)(=O)C1(c2cc(-c3cnc(N)cc3Cl)nc(N3CCOCC3)n2)CC1 [crystal form E]
[1]
  hygroscopicity (in words): almost no hygroscopicity
  moisture absorbed: 0.12%

## CS(=O)(=O)C1(c2cc(-c3cnc(N)cc3Cl)nc(N3CCOCC3)n2)CC1 [crystal form F]
[1]
  hygroscopicity (in words): almost no hygroscopicity
  moisture absorbed: 0.26%

## CS(=O)(=O)C1(c2cc(-c3cnc(N)cc3Cl)nc(N3CCOCC3)n2)CC1 [crystal form I, 4-chloro-5-(6-(1-(methylsulfonyl)cyclopropyl)-2-morpholinopyrimidin-4-yl)pyridin-2-amine]
[1]
  hygroscopicity (in words): almost no hygroscopicity
[1]; humidity increased to 90% RH at 25° C.
  water absorbed: 0.084%
[4]; 50% acetonitrile
  Concentration: 10998 µg/mL
[4]; acetone
  Concentration: 28464 µg/mL
[4]; acetonitrile
  Concentration: 13724 µg/mL
[4]; aqueous with cosolvent or surfactant or cyclodextrin, 50% acetonitrile
  solubility: 11000 µg/mL (≈ 26.8 mM)
[4]; ethanol
  Concentration: 4680 µg/mL
[4]; ethyl acetate
  Concentration: 12441 µg/mL
[4]; isopropanol
  Concentration: 1837 µg/mL
[4]; methanol
  Concentration: 9459 µg/mL
[4]; methyl tert-butyl ether
  Concentration: 1044 µg/mL
[4]; organic solvent or mixture, acetone
  solubility: 28500 µg/mL (≈ 69.4 mM)
[4]; organic solvent or mixture, acetonitrile
  solubility: 13700 µg/mL (≈ 33.5 mM)
[4]; organic solvent or mixture, ethanol
  solubility: > 4680 µg/mL
[4]; organic solvent or mixture, ethyl acetate
  solubility: 12400 µg/mL (≈ 30.4 mM)
[4]; organic solvent or mixture, isopropanol
  solubility: > 1840 µg/mL
[4]; organic solvent or mixture, methanol
  solubility: > 9460 µg/mL
[4]; organic solvent or mixture, methyl tert-butyl ether
  solubility: > 1040 µg/mL
[4]; organic solvent or mixture, tetrahydrofuran
  solubility: 78100 µg/mL (≈ 191 mM)
[4]; tetrahydrofuran
  Concentration: 78135 µg/mL
[4]; water
  solubility: 185 µg/mL (≈ 0.451 mM)
  Concentration: 185 µg/mL
